Experiment [1] in a line: Displacement of [3H]KA from KA receptor in rat brain membranes by scintillation counting method. The format is cell membranes, Membrane. A general note: Displacement assays read how much labelled ligand stays bound in the presence of the test substance.
The next experiment concerns the target Glutamate NMDA receptor. Kind of experiment: Displacement of [3H]CGP39653 from NMDA receptor in rat brain membranes by scintillation counting method. The experiment is classed as cell membranes, Membrane.
Experiment [2] can be described thus: Displacement of [3H]AMPA from AMPA receptor in rat brain membranes by scintillation counting method. The experiment is classed as cell membranes, Membrane.
Experiment [3] is described as follows: Displacement of [3H]AMPA from AMPA receptor in rat brain membranes. The format is cell membranes, Membrane.
The target of experiment [4] is T1, Glutamate receptor 2 (Rattus norvegicus, UniProt P19491). As to the kind of experiment: Displacement of [3H]AMPA from rat GluA2(R) receptor flip isoform expressed in sf9 insect cell membranes by TopCount method.
T1 sequence (P19491 whole entry, canonical isoform): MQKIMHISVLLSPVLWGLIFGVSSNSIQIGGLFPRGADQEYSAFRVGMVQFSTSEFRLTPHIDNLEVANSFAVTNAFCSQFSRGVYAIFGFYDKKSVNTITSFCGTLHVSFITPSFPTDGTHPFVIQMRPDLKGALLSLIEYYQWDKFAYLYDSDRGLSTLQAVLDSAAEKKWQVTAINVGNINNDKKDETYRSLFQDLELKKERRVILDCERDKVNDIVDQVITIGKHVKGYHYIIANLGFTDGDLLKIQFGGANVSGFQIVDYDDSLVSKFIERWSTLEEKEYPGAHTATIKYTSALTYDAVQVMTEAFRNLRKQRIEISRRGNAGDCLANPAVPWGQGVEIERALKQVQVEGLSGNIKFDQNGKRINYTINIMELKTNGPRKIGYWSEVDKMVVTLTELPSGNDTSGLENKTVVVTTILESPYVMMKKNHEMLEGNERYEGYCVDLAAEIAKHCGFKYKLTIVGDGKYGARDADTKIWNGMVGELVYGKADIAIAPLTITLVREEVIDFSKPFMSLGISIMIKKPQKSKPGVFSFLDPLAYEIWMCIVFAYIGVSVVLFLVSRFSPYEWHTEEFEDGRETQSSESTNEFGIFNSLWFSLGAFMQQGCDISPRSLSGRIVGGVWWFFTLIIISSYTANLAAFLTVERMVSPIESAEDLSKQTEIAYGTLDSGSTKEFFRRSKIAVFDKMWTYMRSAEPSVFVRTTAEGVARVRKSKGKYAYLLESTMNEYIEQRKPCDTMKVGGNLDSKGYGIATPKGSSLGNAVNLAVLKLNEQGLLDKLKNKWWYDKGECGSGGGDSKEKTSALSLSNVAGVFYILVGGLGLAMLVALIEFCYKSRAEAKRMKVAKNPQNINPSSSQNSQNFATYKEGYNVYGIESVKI
Another experiment has as its target Glutamate receptor 3 (Rattus norvegicus, UniProt P19492). Kind of experiment: Displacement of [3H]AMPA from rat GluA3 receptor flip isoform expressed in sf9 insect cell membranes by TopCount method.
For the next experiment, the species on record is Rattus norvegicus. Kind of experiment: Selectivity ratio of Ki for rat GluA3 receptor flip isoform expressed in sf9 insect cell membranes to Ki for rat GluA2(R) receptor flip isoform expressed in sf9 insect cell membranes.
In experiment [5] the target is Glutamate receptor 2 (Rattus norvegicus) (UniProt P19491). Kind of experiment: Antagonist activity at rat GluA2(Q) receptor flop isoform expressed in Xenopus laevis oocytes assessed as inhibition of (S)-glutamate-induced channel activation by two electrode voltage clamp method. The experiment is classed as cell-based. A general note: Two-electrode voltage clamp holds a large cell at a set potential and records current.
Chain of Glutamate receptor 2 (Rattus norvegicus) (P19491 whole entry, canonical isoform): as above

Experiment [6] shares this target. Kind of experiment: Agonist activity at rat GluA2(Q) receptor flop isoform expressed in Xenopus laevis oocytes at 300 uM by two electrode voltage clamp method. The format is cell-based.
Experiment [7] deals with T1, Glutamate receptor 2. As to the kind of experiment: Displacement of [3H]AMPA from rat GluA2(Q) receptor flop isoform by TopCount method.

One may read the Ki as a dissociation constant, usually derived from enzyme kinetics or from competition with a known ligand. A high value points to lower affinity. A word on the pKi: it is the Ki on a negative log10 scale, so that one unit is a factor of ten. A lower pKi goes with a high Ki. By Kb is commonly meant the equilibrium dissociation constant of an antagonist, usually derived from a functional assay.

Activity calls are given as the source filed them. No cut-off for these calls is given here.

Chain of Glutamate receptor 3 (P19492 whole entry, canonical isoform): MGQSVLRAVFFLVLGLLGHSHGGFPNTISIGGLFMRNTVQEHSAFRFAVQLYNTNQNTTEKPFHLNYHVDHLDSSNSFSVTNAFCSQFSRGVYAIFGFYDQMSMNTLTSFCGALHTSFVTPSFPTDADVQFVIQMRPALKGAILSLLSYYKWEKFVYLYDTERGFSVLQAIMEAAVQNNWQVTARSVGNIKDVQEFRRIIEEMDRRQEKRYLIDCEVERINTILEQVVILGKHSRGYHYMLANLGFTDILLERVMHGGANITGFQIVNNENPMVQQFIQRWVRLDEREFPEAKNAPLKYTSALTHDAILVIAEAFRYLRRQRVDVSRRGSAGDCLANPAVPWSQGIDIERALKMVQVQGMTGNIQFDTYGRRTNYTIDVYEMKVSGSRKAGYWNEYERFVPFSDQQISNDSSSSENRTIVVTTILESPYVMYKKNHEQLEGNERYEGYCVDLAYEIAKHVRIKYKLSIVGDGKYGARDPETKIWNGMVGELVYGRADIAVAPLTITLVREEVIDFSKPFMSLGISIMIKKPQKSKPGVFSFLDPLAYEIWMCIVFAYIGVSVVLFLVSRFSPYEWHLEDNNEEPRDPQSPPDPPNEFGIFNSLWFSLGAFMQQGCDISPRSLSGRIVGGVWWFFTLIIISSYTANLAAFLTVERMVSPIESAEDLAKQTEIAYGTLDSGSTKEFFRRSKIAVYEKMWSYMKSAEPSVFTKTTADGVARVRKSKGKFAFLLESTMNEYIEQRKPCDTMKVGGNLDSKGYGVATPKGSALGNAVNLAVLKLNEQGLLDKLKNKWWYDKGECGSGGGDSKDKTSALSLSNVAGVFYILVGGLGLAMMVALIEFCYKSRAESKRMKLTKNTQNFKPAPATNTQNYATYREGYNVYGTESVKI

`NC(Cc1cc(Cl)c(O)c(-c2cccc(O)c2)c1)C(=O)O` (racemic): the Ki in [1] was > 100 µM; on Glutamate NMDA receptor, > 100 µM; in [2], 7.9 µM. The same molecule showed a pKi in experiment [2] of 5.1.
With `COc1c(Cl)cc(CC(N)C(=O)O)cc1-c1cccc(O)c1` (racemic), the Ki (in experiment [1]; on Glutamate NMDA receptor; in experiment [2]) was > 100 µM each time.
In the case of `Nc1c(Cl)cc(CC(N)C(=O)O)cc1-c1cccc(O)c1` (racemic), the Ki in experiment [1] was > 100 µM; on Glutamate NMDA receptor, > 100 µM; in experiment [2], 10 µM. This molecule also had a pKi in experiment [2] of 4.99.
`NC(Cc1cc(-c2ccc(O)cc2)cc([N+](=O)[O-])c1)C(=O)O` (racemic): the values for the Ki (in [1]; on Glutamate NMDA receptor; in [2]) were > 100 µM, > 100 µM and 21 µM, respectively. In experiment [2], this molecule displayed a pKi of 4.68.
For the molecule `Nc1ccc(CC(N)C(=O)O)cc1-c1cccc(O)c1` (racemic), the Ki is > 100 µM in experiment [1], > 100 µM at Glutamate NMDA receptor and 9.1 µM in [2]. In addition, the pKi in [2] amounted to 5.05.
`NC(Cc1cccc(-c2cccc(O)c2)c1)C(=O)O` (racemic): the Ki in experiment [1] was > 100 µM.
Take `CC(C)(C)c1onc(OCP(=O)(O)O)c1C[C@H](N)C(=O)O`: the Ki in [1] was > 100 µM; in experiment [3], 16 µM.
With `NC(Cc1cc(-c2cccc(O)c2)cc([N+](=O)[O-])c1)C(=O)O` (racemic), the Ki in experiment [1] is > 100 µM; on Glutamate NMDA receptor it was > 100 µM; in experiment [2], 8.2 µM. Further, the pKi in experiment [2] came to 5.09.
As to `NC(Cc1cc(Cl)cc(-c2ccc(O)cc2)c1)C(=O)O` (racemic), the Ki in experiment [1] is > 100 µM; at Glutamate NMDA receptor it was > 100 µM; in [2], 46 µM. The molecule further showed a pKi in experiment [2] of 4.34.
As to `NC(Cc1cc(-c2ccc(O)cc2)c(Cl)c([N+](=O)[O-])c1)C(=O)O` (racemic), the values for the Ki (in experiment [1]; on Glutamate NMDA receptor; in [2]) were > 100 µM, > 100 µM and 23 µM, respectively. This molecule also came in with a pKi in experiment [2] of 4.66.
For the molecule `N[C@@H](Cc1cc(Cl)cc(-c2cccc(O)c2)c1)C(=O)O`, the Ki at Glutamate receptor 2 [4] was 40.8 µM; at Glutamate receptor 3 it was > 100 µM.
As to `N[C@H](Cc1cc(-c2cc(O)ccc2O)c(Cl)c([N+](=O)[O-])c1)C(=O)O`, the Ratio Ki in the experiment filed under Rattus norvegicus was determined as 4. In addition, the results for the inhibition constant Ki at Glutamate receptor 2 [4], on Glutamate receptor 3 and on Glutamate receptor 2 [7] were 1.71 µM, 7.01 µM and 1.74 µM, respectively. In experiment [5], the antagonist equilibrium constant (Kb) came to 2.13 µM. Besides, in experiment [5], the inhibition result is “Dose-dependent effect”. Also, the outcome in [6] was inactive.
As for `NC(Cc1cc(-c2cc(O)cc(F)c2)c(Cl)c([N+](=O)[O-])c1)C(=O)O` (racemic), the values for the Ki (in [1]; at Glutamate NMDA receptor; in experiment [2]) were 26 µM, > 100 µM and 3.4 µM, respectively. Further, the pKi in experiment [1] is listed as 4.58; in [2] it was 5.47.
As to `NC(Cc1cc(-c2cc(O)ccc2O)c(Cl)c([N+](=O)[O-])c1)C(=O)O` (racemic), the Ki in [1] is 15 µM; at Glutamate NMDA receptor it was > 100 µM; in experiment [2] it was 0.92 µM. Also, the results for the pKi in experiment [1] and in experiment [2] were 4.83 and 6.04, respectively.
Consider `NC(Cc1ccc([N+](=O)[O-])c(-c2cccc(O)c2)c1)C(=O)O` (racemic), for which the values for the Ki (in [1]; on Glutamate NMDA receptor; in experiment [2]) were > 100 µM, > 100 µM and 21 µM, respectively. In experiment [2], this molecule showed a pKi of 4.67.
For the molecule `NC(Cc1ccc(Cl)c(-c2ccc(O)cc2)c1)C(=O)O` (racemic), the figures for the Ki (in experiment [1]; at Glutamate NMDA receptor; in [2]) were > 100 µM, > 100 µM and 65 µM, respectively. Besides, the pKi in experiment [2] was found to be 4.19.
For `NC(Cc1cc(Cl)c(Cl)c(-c2cncc(O)c2)c1)C(=O)O` (racemic), the Ki in experiment [1] was > 100 µM.
Take `NC(Cc1cc(-c2cccc(O)c2)c(Cl)c([N+](=O)[O-])c1)C(=O)O` (racemic): the results for the Ki (in [1]; on Glutamate NMDA receptor; in experiment [2]) were > 100 µM, > 100 µM and 3.1 µM, respectively. The negative-log Ki (pKi) in experiment [2] is reported as 5.52.
In the case of `NC(Cc1cc(Cl)c(Cl)c(-c2cccc(O)c2)c1)C(=O)O` (racemic), the inhibitory constant (Ki) in [1] is > 100 µM.
On to `NC(Cc1cc(-c2cncc(O)c2)c(Cl)c([N+](=O)[O-])c1)C(=O)O` (racemic), for which the inhibition constant Ki is > 100 µM in experiment [1], > 100 µM at Glutamate NMDA receptor and 2 µM in experiment [2]. In experiment [2], this molecule showed a pKi of 5.7.
Take `NC(Cc1cc(Cl)cc(-c2cccc(O)c2)c1)C(=O)O` (racemic): the Ki is > 100 µM in experiment [1], > 100 µM on Glutamate NMDA receptor and 9.3 µM in experiment [2]. This molecule also displayed a pKi in experiment [2] of 5.06.
`N[C@H](Cc1ccc(Cl)c(-c2cccc(O)c2)c1)C(=O)O`: the results for the inhibition constant Ki at Glutamate receptor 2 [4] and on Glutamate receptor 3 were 21.9 µM and > 100 µM, respectively.
As for `N[C@H](Cc1cc(Cl)cc(-c2cccc(O)c2)c1)C(=O)O`, the Ki at Glutamate receptor 2 [4] is 20.7 µM; on Glutamate receptor 3, > 100 µM.
`NC(Cc1ccc([N+](=O)[O-])c(-c2ccc(O)cc2)c1)C(=O)O` (racemic): the Ki was > 100 µM in [1], > 100 µM on Glutamate NMDA receptor and 64 µM in [2]. In experiment [2], this molecule registered a pKi of 4.2.
With `N[C@@H](Cc1cc(-c2cc(O)ccc2O)c(Cl)c([N+](=O)[O-])c1)C(=O)O`, the results for the inhibition constant (Ki) on Glutamate receptor 2 [4] and at Glutamate receptor 3 were 18.4 µM and > 100 µM, respectively.
Regarding `Nc1c(-c2cccc(O)c2)cc(CC(N)C(=O)O)cc1[N+](=O)[O-]` (racemic), the Ki in experiment [1] was > 100 µM; on Glutamate NMDA receptor, > 100 µM; in [2] it was 14 µM. Moreover, the pKi in [2] was 4.84.
As for `NC(Cc1ccc(Cl)c(-c2cccc(O)c2)c1)C(=O)O` (racemic), the Ki in experiment [1] was > 100 µM; on Glutamate NMDA receptor, > 100 µM; in experiment [2] it was 9.2 µM. The negative logarithm of the Ki (pKi) in experiment [2] turned out to be 5.04.
Turning to `N[C@@H](Cc1ccc(Cl)c(-c2cccc(O)c2)c1)C(=O)O`, the Ki on Glutamate receptor 2 [4] and on Glutamate receptor 3 was > 100 µM each time.

These data come from ChEMBL document CHEMBL4190283, “Pharmacological characterization and binding modes of novel racemic and optically active phenylalanine-based antagonists of AMPA receptors” (Eur J Med Chem, 2017).
